Patent US9440969B2, “Compounds and methods for kinase modulation, and indications therefor” (PLEXXIKON INC., priority 2009, dated 2016)

How the values were obtained:
B-Raf = B-Raf (Homo sapiens, UniProt P15056); test: B-Raf kinase activity assay (AlphaScreen, biotin-MEK1 substrate); conditions: 100 μM ATP, 100 nM biotin-MEK1, 45 minutes at room temperature; read-out: Biochemical activity (IC50 μM) B-Raf
Outline: (§1)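 AlphaScreen detection of phospho-MEK1 uses anti-phospho-MEK1/2 antibody and donor/acceptor beads, incubated 3 h. The kinase step runs 45 min at room temperature with 0.1 ng enzyme, 100 nM biotin-MEK1 and 100 μM ATP in 50 mM HEPES pH 7.0. IC50 is derived from eight compound concentrations.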

B-Raf V600E = B-Raf V600E (Homo sapiens, UniProt P15056, V600E); test: B-Raf V600E kinase activity assay (AlphaScreen, biotin-MEK1 substrate); conditions: 100 μM ATP, 100 nM biotin-MEK1, 45 minutes at room temperature, read-out: Biochemical activity (IC50 μM) V600E
Outline: as §1

c-Raf-1 = c-Raf-1 (Homo sapiens, UniProt P04049); test: c-Raf-1 kinase activity assay (AlphaScreen, biotin-MEK1 substrate); conditions: 100 μM ATP, 100 nM biotin-MEK1, 45 minutes at room temperature; read-out: Biochemical activity (IC50 μM) c-Raf-1
Outline: as §1

[1] = system: COLO205 colon adenocarcinoma (B-Raf V600E mutation); test: COLO205 cell growth inhibition (ATPlite luminescence); type: cell-based; conditions: Homo sapiens, COLO 205, 72 h, COLO205 cells, incubated 3 days with compound
Procedure: Compounds are assessed in a variety of cell based assays. For example human cell lines with B-Raf V600E mutation (A375 melanoma, SKMEL3 melanoma, and COLO205 colon adenocarcinoma), as well as tumorigenic cell lines with wild-type B-RAF (SW620 colon adenocarcinoma) or with Ras mutations (SKMEL2 melanoma and IPC298 melanoma). Similar assays may be used to assess additional tumorigenic cell lines with Ras mutations, including, but not limited to, M202, M207, M243, M244, M296, S117, HCT116, HCT15, DLD1, MiaPaCa, A549, NCI-H23, NCI-H460, HOP62, MDA-MB231, Hs-578T, HL60, MOLT-4, and CCRF-CEM.
On day 1, cells are counted, then centrifuged in a conical tube for 5 minutes at 1000 rpm. The supernatant is removed and cells are re-suspended as follows: • SW620 (ATCC catalog #CCL-27): resuspend in Leibovitz's L-15 medium, 2 mM L-glutamine, 10% fetal bovine serum to 6×10^4 cells/mL. • A375 (ATCC catalog #CRL-1619): resuspend in Dulbecco's modified Eagle's medium, 4 mM L-glutamine, 4.5 g/L D-glucose, 10% fetal bovine serum to 6×10^4 cells/mL. • COLO205 (ATCC catalog #CCL-222): resuspend in RPMI 1640, 2 mM L-glutamine, 1.5 g/L sodium bicarbonate, 4.5 g/L D-glucose, 10 mM HEPES, 1.0 mM sodium pyruvate, 10% fetal bovine serum to 6×10^4 cells/mL. • SKMEL2 (ATCC catalog #HTB-68): resuspend in Minimum Eagle essential medium, 2 mM L-glutamine, 1.5 g/L sodium bicarbonate, 0.1 mM non-essential amino acids, 1.0 mM sodium pyruvate, 10% fetal bovine serum to 6×10^4 cells/mL. • SKMEL3 (ATCC catalog #HTB-69): resuspend in McCoy's 5A medium, 1.5 mM L-glutamine, 15% fetal bovine serum to 6×10^4 cells/mL. • IPC298 (DSMZ catalog #ACC 251): resuspend in RPMI 1640, 2 mM L-glutamine, 10% fetal bovine serum to 6×10^4 cells/mL.
The cells are plated, 50 μL in each well of a 96-well dish (Corning 3610) and incubated at 37° C. in 5% CO2 overnight, cells plated to a final concentration of cells as follows:
On day 2, compound at a maximum concentration of 5 mM is serially diluted 1:3 (e.g. 10 μL with 30 μL dimethyl sulfoxide) for a total of 8 point titration with DMSO as a control. A 1 μL aliquot of each dilution point and control is added to 249 μL growth media and 50 μL is added to a well containing cells, providing 10 μM compound at the maximum concentration point. The cells are incubated for 3 days at 37° C. in 5% CO2.
On day 5, ATPlite 1 step Luminescence Assay System (Perkin Elmer #6016739) is brought to room temperature along with the cell cultures. ATPlite is added 25 μL to each well, shake for 2 minutes, and the cells are incubated at room temperature for 10 minutes, then luminescence is read on Safire reader. The measured luminescence correlates directly with cell number, such that the reading as a function of compound concentration is used to determine the IC50 value.
It is understood that the results of these assays may vary as assay conditions are varied. Inhibition levels determined under the conditions described herein represent a relative activity for the compounds tested under the specific conditions employed. The cell based assays are likely to show variability due to the complexity of the system and the sensitivity thereof to any changes in the assay conditions. […] Results for compounds that are tested and show substantially no inhibition below the highest tested concentration are represented as “-” in the tables below. In some instances, the compounds were not tested in all of the assays, or assay results were not valid, as indicated by NA in the tables below.

c-Raf-1, sequence (P04049 whole entry Y340D/Y341D, form open): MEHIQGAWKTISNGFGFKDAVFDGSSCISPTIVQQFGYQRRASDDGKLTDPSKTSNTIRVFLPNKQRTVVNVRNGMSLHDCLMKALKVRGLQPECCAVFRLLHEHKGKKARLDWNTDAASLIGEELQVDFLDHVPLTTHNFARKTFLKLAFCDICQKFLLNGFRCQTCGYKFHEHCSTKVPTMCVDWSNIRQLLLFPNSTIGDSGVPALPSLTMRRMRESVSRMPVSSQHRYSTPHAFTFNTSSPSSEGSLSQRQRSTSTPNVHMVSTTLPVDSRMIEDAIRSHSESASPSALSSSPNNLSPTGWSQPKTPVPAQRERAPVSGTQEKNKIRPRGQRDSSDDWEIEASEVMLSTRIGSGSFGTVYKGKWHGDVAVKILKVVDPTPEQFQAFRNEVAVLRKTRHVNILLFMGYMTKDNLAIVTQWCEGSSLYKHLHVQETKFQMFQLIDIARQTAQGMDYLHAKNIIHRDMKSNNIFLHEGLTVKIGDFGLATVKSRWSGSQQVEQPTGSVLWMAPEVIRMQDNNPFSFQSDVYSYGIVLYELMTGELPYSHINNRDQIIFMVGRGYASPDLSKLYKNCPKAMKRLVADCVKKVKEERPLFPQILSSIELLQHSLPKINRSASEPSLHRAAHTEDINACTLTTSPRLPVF
B-Raf, sequence (P15056 whole entry): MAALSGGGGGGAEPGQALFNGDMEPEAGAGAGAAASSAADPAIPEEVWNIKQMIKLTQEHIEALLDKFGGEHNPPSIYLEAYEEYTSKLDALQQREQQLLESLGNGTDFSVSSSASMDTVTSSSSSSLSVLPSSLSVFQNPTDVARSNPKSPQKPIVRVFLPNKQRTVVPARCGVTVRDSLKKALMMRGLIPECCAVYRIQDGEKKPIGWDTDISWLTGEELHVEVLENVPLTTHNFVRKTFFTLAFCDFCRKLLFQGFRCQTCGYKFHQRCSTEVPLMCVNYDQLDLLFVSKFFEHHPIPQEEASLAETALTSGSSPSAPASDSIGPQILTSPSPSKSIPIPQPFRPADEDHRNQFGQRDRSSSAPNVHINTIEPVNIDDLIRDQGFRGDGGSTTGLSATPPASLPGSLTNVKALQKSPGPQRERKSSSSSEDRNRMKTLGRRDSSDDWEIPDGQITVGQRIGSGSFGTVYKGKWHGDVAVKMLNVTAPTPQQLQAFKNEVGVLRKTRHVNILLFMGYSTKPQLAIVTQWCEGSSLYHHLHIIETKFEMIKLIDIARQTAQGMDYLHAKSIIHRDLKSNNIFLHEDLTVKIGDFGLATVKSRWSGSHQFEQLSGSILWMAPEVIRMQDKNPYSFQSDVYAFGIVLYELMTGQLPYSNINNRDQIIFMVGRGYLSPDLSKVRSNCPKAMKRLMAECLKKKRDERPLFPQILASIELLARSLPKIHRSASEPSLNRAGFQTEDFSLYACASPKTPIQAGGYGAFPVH
B-Raf V600E, sequence (P15056 whole entry V600E): as the sequence (P15056 whole entry) above, with V600E counted along it

Structure (SMILES) | IC50 (B-Raf) [µM] | IC50 (B-Raf V600E) [µM] | IC50 (c-Raf-1) [µM] | IC50 [1] [µM]
CCCS(=O)(=O)Nc1ccc(F)c(C(=O)c2c[nH]c3ncc(-c4cnc(N)cn4)cc23)c1F [P-1603, Propane-1-sulfonic acid {3-[5-(5-amino-pyrazin-2-yl)-1H-pyrrolo[2,3-b]pyridine-3-carbonyl]-2,4-difluoro-phenyl}-amide] | < 0.1 | < 0.1 | < 0.1 | < 1
CCCS(=O)(=O)Nc1ccc(F)c(C(=O)c2c[nH]c3ncc(-c4ccc(Cl)c(C(N)=O)c4)cc23)c1F [P-1700, 2-Chloro-5-{3-[2,6-difluoro-3-(propane-1-sulfonylamino)-benzoyl]-1H-pyrrolo[2,3-b]pyridin-5-yl}-benzamide] | < 0.1 | < 0.1 | < 0.1 | < 1
CCCS(=O)(=O)Nc1ccc(F)c(C(=O)c2c[nH]c3ncc(-c4ccc5c(c4)CNC5=O)cc23)c1F [P-1701, Propane-1-sulfonic acid {2,4-difluoro-3-[5-(1-oxo-2,3-dihydro-1H-isoindol-5-yl)-1H-pyrrolo[2,3-b]pyridine-3-carbonyl]-phenyl}-amide] | < 0.1 | < 0.1 | < 0.1 | < 1
CCCS(=O)(=O)Nc1ccc(F)c(C(=O)c2c[nH]c3ncc(-c4ccc5c(c4)C(=O)NC5)cc23)c1F [P-1702, Propane-1-sulfonic acid {2,4-difluoro-3-[5-(3-oxo-2,3-dihydro-1H-isoindol-5-yl)-1H-pyrrolo[2,3-b]pyridine-3-carbonyl]-phenyl}-amide] | < 0.1 | < 0.1 | < 0.1 | < 1
CCCS(=O)(=O)Nc1ccc(F)c(C(=O)c2c[nH]c3ncc(-c4ccc5c(c4)CC(=O)N5)cc23)c1F [P-1703, Propane-1-sulfonic acid {2,4-difluoro-3-[5-(2-oxo-2,3-dihydro-1H-indol-5-yl)-1H-pyrrolo[2,3-b]pyridine-3-carbonyl]-phenyl}-amide] | < 0.1 | < 0.1 | < 0.1 | < 1
CCCS(=O)(=O)Nc1ccc(F)c(C(=O)c2c[nH]c3ncc(C(=O)Nc4cccnc4)cc23)c1F [P-1801, 3-[2,6-Difluoro-3-(propane-1-sulfonylamino)-benzoyl]-1H-pyrrolo[2,3-b]pyridine-5-carboxylic acid pyridin-3-ylamide] | < 0.1 | < 0.1 | < 0.1 | > 1

Continued, values first:

IC50 (B-Raf) [µM] | IC50 (B-Raf V600E) [µM] | IC50 (c-Raf-1) [µM] | IC50 [1] [µM] | Structure (SMILES)
< 0.1 | < 0.1 | < 0.1 | > 1 | CCCS(=O)(=O)Nc1ccc(F)c(C(=O)c2c[nH]c3ncc(-c4ccccn4)cc23)c1F [P-1401, Propane-1-sulfonic acid [2,4-difluoro-3-(5-pyridin-2-yl-1H-pyrrolo[2,3-b]pyridine-3-carbonyl)-phenyl]-amide]
< 0.1 | < 0.1 | < 0.1 | < 1 | CCCS(=O)(=O)Nc1ccc(F)c(C(=O)c2c[nH]c3ncc(-c4cnc(-n5cccn5)cn4)cc23)c1F [P-1601, Propane-1-sulfonic acid {2,4-difluoro-3-[5-(5-pyrazol-1-yl-pyrazin-2-yl)-1H-pyrrolo[2,3-b]pyridine-3-carbonyl]-phenyl}-amide]
< 0.1 | < 0.1 | < 0.1 | < 1 | CCCS(=O)(=O)Nc1ccc(F)c(C(=O)c2c[nH]c3ncc(-c4cnc(-n5ccnc5)cn4)cc23)c1F [P-1602, Propane-1-sulfonic acid {2,4-difluoro-3-[5-(5-imidazol-1-yl-pyrazin-2-yl)-1H-pyrrolo[2,3-b]pyridine-3-carbonyl]-phenyl}-amide]
